# In patent publication US5686495A, “Substituted hydrazinedicarboximidamides and methods of use thereof” (Cambridge NeuroScience, Inc., priority 1995, dated 1997):
# Entries after “also recorded” stand apart in the source; their conditions may differ. Structures can show the parent of a compound that is named as a salt. Where two headings read alike, the source gives them in different places.
# Legend:
# [1] = test system: 3H-glutamate release from rat brain synaptosomes; assay: Inhibition of K+-evoked 3H-glutamate release from synaptosomes (rapid superfusion); assay type: cell-based; settings: for inhibition at 10 µM: read-out: Inhibition of Glutamate Release (Persistent Component), % Inhibition @ 10 uM; for inhibition at 30 µM: read-out: inhibition of glutamate release; for activity at 30 µM / activity at 100 µM: read-out: relative level of glutamate release
# Method: To study the release of presynaptic ^3 H-glutamate, synaptosomes from young rats were used. CD Male rats of 4 to 6 weeks (50-75 g) were used for the preparation of synaptosomes. Rats were killed by decapitation with guillotine and the skull bone was opened in the center with the pointed blade of dissection scissors. The bone is then peeled away with a bone cutter and the brain is pried with a micro spatula. The cerebellum is removed and the rest of the brain is placed in 35 ml of 0.32M Sucrose solution and homogenized in a Thomas glass teflon homogenizer C at the maximum power setting (about 450 rpm) with 16 strokes. The pestle is rinsed with 5 ml of sucrose solution and added to the homogenate. The homogenate is centrifuged for 10 min at 3500 rpm (1500 g) in a SS-34 rotor in Sorvall RC-5B. The resulting pellet (P1) is discarded and the supernatant (S1) is recentrifuged for 20 min at 8700 rpm (8500 g). The supernatant (S2) is discarded and the pellet (P2) is resuspended in 5 ml of 0.32M sucrose and hand homogenized with 4 strokes (Thomas C) and the volume was made up to 8 ml. This homogenate was layered on 20 ml of 0.8M sucrose solution in two centrifuge tubes and spun for 25 minutes at 8700 rpm (8500 g). At the end of this spin, most of the myelin stays at the interphase of 0.32M and 0.8M sucrose and mitochondria pellet as a brown pellet. The synaptosomes are dispersed in the 0.8M sucrose. Using a 10 ml pipette, the 0.8M sucrose layer is collected (without disturbing the top myelin layer or the pellet) and diluted slowly with an equal volume of chilled basal buffer, while stirring gently with a Pasteur pipette. This diluted solution is centrifuged for 10 min at 10,000 rpm (12,000 g) and the pellet is resuspended in 1.5 ml of basal buffer and hand-homogenized in a Wheaton glass-glass 7 ml homogenizer with 8 strokes.
# The synaptosomal homogenate is diluted 1 ml to 10 ml with basal buffer. This dilution gives a protein concentration of 500 to 600 μg/ml. One hundred μl of this diluted prep with 50-60 μg of protein is used for each superfusion event. […] The diluted synaptosomal solution was kept on ice until the end of the experiment.
# ^3 H-glutamate (purchased from NEN) is stored in the refrigerator. Pipette 6 μl ([…]; 40 to 55 Ci/mmol) into a disposable test tube. Add 100 μl of diluted prep and mix gently on vortex and incubate at 30° C. for 10 min. ^3 H-glutamate is taken up by sodium-coupledglutamate transporter present in synaptosomal membranes. After 10 min, dilute the incubation mixture with 690 μl of basal buffer. This solution is then transferred in Tygon tubing that is connected to the synaptosome loading chamber. Using a syringe filler with air, the solution is forced through the Millipore SC--GF/F--Millipore SC filter sandwich. These filters retain the synaptosomes and the solution flows through.
# An important component of the superfusion setup is the custom made stainless steel "General Valve" three-valve solenoid operated superfusion chamber with an outlet for the effluent. The three inlets are connected to stainless steel buffer reservoirs that contain (1) wash buffer, (2) control buffer and (3) experimental buffer which are kept under 40 psi of nitrogen gas through teflon tubing connections. The superfusion is controlled through a menu-driven program on an Apple IIe computer. See Turner, J. T. et al., Anal. Biochem. 178:8-16 (1989), and U.S. Pat. No. 4,891,185, the disclosures of which are fully incorporated by reference herein.
# The superfusion chamber has a teflon bushing and a stainless steel washer fixed with the flat surface facing the filters. A GF/B filter disc is placed first in the chamber to eliminate the switching related artifacts. The synaptosome loaded sandwich is then placed facing the synaptosomes into the flow followed by RA filter, stainless steel screen and a washer with the flat side facing the screen.
# [2] = test system: potassium-stimulated 45Ca uptake of synaptosomes; assay: Potassium-stimulated 45Ca uptake into synaptosomes; assay type: cell-based, rat
# Method: Several compounds were also tested to determine whether the Ca^2+ dependent and independent components of glutamate release are related to the blockage of ^45 Ca uptake. Calcium uptake is one step in the cascade of events which occur in neuronal cell death from ischemia. See Bassaclough and Leach, Current Patents Ltd., 2-27. The Ca-flux protocol is as follows. Rat brain synaptosomes were prepared according to Hajos, Brain Res. 93:485 (1975). Synaptosomes were suspended in low potassium "LK" buffer (containing 3 mM KCl) at 2 mg/ml. […] After 5 seconds, the ^45 Ca flux was stopped with 0.9 ml quench solution (LK+10 mM EGTA). The solution was filtered under vacuum and the filters washed with 15 ml of quench buffer. The effect of drug is expressed as % inhibition (or block) of control potassium-stimulated ^45 Ca influx. This method is an adaptation of the method disclosed by Nachsen and Blaustein, J. Physiol. 361:251-268 (1985).
# [3] = test system: sodium channels in N1E-115 neuroblastoma cells; assay: Whole cell sodium currents in voltage clamped N1E-115 neuroblastoma cells; assay type: cell-based
# Text: Whole cell sodium currents were elicited in voltage clamped N1E-115 neuroblastoma cells, using the stimulus protocol shown on the top of FIG. 7.
# [4] = test system: ω-conotoxin-sensitive N-type calcium channels; assay: Electrophysiology on N-type calcium channels of single dorsal root ganglion cells; assay type: cell-based, bullfrog
# Method: Single bullfrog dorsal root ganglion cells, which express ω-conotoxin-sensitive N-type calcium channels, were treated with 5 uM of N,N'-di(acenaphthyl) guanidine. The solution also contained (in mM) CsCl, 90; creatine phosphate, 5; MgATP, 5; tris GTP, 0.3; EGTA, 10; HEPES, 10; pH 7.2. […] Calcium channel rundown during the recording period may account for the lack of complete reversal of inhibition. This further supports the hypothesis that certain substituted guanidines inhibit neurotransmitter release by […] presynaptic calcium channels.
# [5] = test system: hippocampal slices (Schaffer collateral synaptic potentials); assay: Hippocampal slice electrophysiology of excitatory synaptic transmission (field EPSP, population spikes); design: species or system Sprague-Dawley rats; settings: for inhibition at 20 µM: Rattus norvegicus
# Method: Transverse sections of hippocampus were obtained from 4-6 week old Sprague-Dawley rats and maintained under standard conditions. […] Extracellular excitatory post synaptic potentials (EPSP's) were recorded by placing a saline-filled glass microelectrode in either the stratum radiatum or stratum lacunosum. Population spikes were recorded by placing an electrode in the stratum pyramidole.
# sigma receptor = assay: Sigma receptor binding against 3H-DTG
# [6] = test system: Ca2+-dependent glutamate release stimulated with the sodium channel activator veratridine; assay: Glutamate release of synaptosomes depolarized with veratridine; assay type: cell-based; settings: various concentrations
# [7] = Rattus norvegicus, read-out: Inhibition of 45Ca Uptake, % Inhibition @ 10 uM (SEM)
# [8] = bath application, listed as N,N'-di(5-acenaphthyl)guanidine, Hydrobromide
# [9] = Rattus norvegicus; read-out: Inhibition of 45Ca Uptake, IC50
smiles,measurement,setting,value
"Br.N=C(Nc1ccc2c3c(cccc13)CC2)Nc1ccc2c3c(cccc13)CC2 [N,N'-Bis(5-acenaphthyl)guanidine, N,N'-Bis (5-Acenaphthyl)Guanidine Hydrobromide]",inhibition of Ca2+-dependent [3H]glutamate release (FIG. 3),"[1]; 0, 1, 3, 10 uM, K+ depolarization",potent inhibitor of glutamate release
same,selectivity between persistent and transient component of Ca2+-dependent glutamate release,[1]; 3-10 uM,blocks the persistent component of Ca^2+ -dependent glutamate release more than the initial transient component
same,inhibition at 10 µM,[1]; Rattus norvegicus,92%
same,IC50,"[1]; Rattus norvegicus, read-out: Inhibition of Glutamate Release (Persistent Component), IC50",3 µM
same,activity at 10 µM,"[2]; Rattus norvegicus, read-out: % Uptake vs. Control",43%
same,inhibition at 10 µM,[2]; [7],46%
same,IC50,"[2]; Rattus norvegicus, read-out: Inhibition of 45Ca Uptake, IC50",10.7 ± 3 µM
same,"block of inward sodium currents, average","[3]; 30 uM, pressure ejection, N=5 cells",40%
same,inhibition of inward sodium current in the cell shown (FIG. 7),"[3]; 30 uM, single cell of FIG. 7",49%
same,reversal of sodium current block,[3]; following washout,partially reversed following washout
same,inhibition of N-type calcium channel current,[4]; 5 uM,about 40%
same,inhibition of N-type calcium channel current,[4]; 20 uM,inhibited nearly all of the current
same,reversal of N-type current inhibition,[4]; in about 6 minutes,Most of the inhibition was reversed
same,inhibition at 20 µM,"[5]; bath application, read-out: reduction of field EPSP amplitude",80 to 90%
same,inhibition at 20 µM,"[5]; bath application, read-out: reduction of population spike amplitude",80 to 90%
same,effect on field EPSP,[5]; [8],reversibly blocked; also recorded: almost completely eliminated the field EPSP
same,effect on population spikes,[5]; [8],completely eliminated population spikes; also recorded: reversibly blocked these population spikes
same,reversibility of effect,"[5]; following washout, listed as N,N'-di(5-acenaphthyl)guanidine, Hydrobromide",completely reversible following washout; also recorded: fully reversible following washout; also recorded: fully recovered following washout
"N=C(NC12CC3CC(CC(C3)C1)C2)NC12CC3CC(CC(C3)C1)C2 [N,N'-di-(adamantan-1-yl)guanidine]",concentration dependence of 3H-glutamate release (FIG. 2),"[1]; 0, 10, 30, 100 uM, 2.1 second K+ depolarizing pulse",decreasing release of glutamate from synaptosomes
same,inhibition at 10 µM,[1]; Rattus norvegicus,49%
same,inhibition at 30 µM,[1]; Rattus norvegicus,55%
same,activity at 30 µM,[1]; Rattus norvegicus,45%
same,activity at 100 µM,[1]; Rattus norvegicus,13%
same,inhibition at 10 µM,[2]; [7],25%
same,IC50,"[2]; Rattus norvegicus; FIG. 6 curve fits; read-out: IC50, inhibition of potassium-stimulated Ca uptake of synaptosomes (FIG. 6)",6.6 µM
same,IC50,[2]; [9],25 ± 9 µM
same,IC50,sigma receptor,0.0165 µM
"N=C(NC1C2CC3CC(C2)CC1C3)NC1C2CC3CC(C2)CC1C3 (centres unmarked) [N,N'-di-(adamantan-2-yl)guanidine, N,N'-(Adamantan-2-yl)guanidine Hydrochloride]",inhibition at 10 µM,[1]; Rattus norvegicus,60%
same,inhibition at 30 µM,[1]; Rattus norvegicus,60%
same,activity at 30 µM,[1]; Rattus norvegicus,40%
same,activity at 100 µM,[1]; Rattus norvegicus,20%
same,inhibition at 10 µM,[2]; [7],35%
same,IC50,[2]; [9],16.1 ± 10 µM
same,IC50,sigma receptor,0.0927 µM
same,inhibition of veratridine-stimulated glutamate release (FIG. 5),[6],inhibition of glutamate release in a dose dependent manner
